Source: ChEMBL document CHEMBL4265892, “New series of 3,5-disubstituted tetrahydro-2H-1,3,5-thiadiazine thione (THTT) derivatives: Synthesis and potent antileishmanial activity” (Bioorg Med Chem Lett, 2018)

Assays:
[1] = test system: Leishmania major; test: Antileishmanial activity against Leishmania major promastigotes after 72 hrs by Neubauer chamber based cell counting method; assay type: functional, organism-based
[2] = Cytotoxicity against […] 3T3 cells assessed as inhibition of cell viability at 50 uM after 48 hrs by MTT assay; assay type: cell-based; conditions: read-out: INH
[3] = Cytotoxicity against […] 3T3 cells after 48 hrs by MTT assay; assay type: cell-based

CCN1CSC(=S)N(CC(=O)O)C1
IC50 [1]: 45.8 µM

C[C@@H]1C[C@@H]([C@H](O)CC2CC(=O)NC(=O)C2)C(=O)[C@@H](C)C1 [CYCLOHEXIMIDE]
cytotoxicity at 48 h, 50 µM [2]: 66% | IC50 ([3]; NIH3T3, 48 h, read-out: IC50): 0.61 µM

CCCCN1CN(CC(=O)O)CSC1=S
IC50 [1]: 24.6 µM

CCCN1CN(CC(=O)OCc2ccccc2)CSC1=S
IC50 [1]: 93.1 µM

CCCN1CN(CC(=O)OC)CSC1=S
IC50 [1]: 203 µM | cytotoxicity at 48 h, 50 µM [2]: 36.9% | IC50 [3]: Not Active

CC(C)N1CSC(=S)N(C(C)c2ccccc2)C1 (stereo not given)
IC50 [1]: 21.4 µM

CCCCN1CN(CC(=O)OCC)CSC1=S
IC50 [1]: 36.5 µM

CCCCN1CSC(=S)N(C(C)c2ccccc2)C1 (stereo not given)
IC50 [1]: 21.4 µM

CCCN1CN(CC(=O)OCC)CSC1=S
IC50 [1]: 107 µM

O=C(O)CN1CN(CCO)CSC1=S
IC50 [1]: 39.4 µM

CC(c1ccccc1)N1CN(CCO)CSC1=S (stereo not given)
IC50 [1]: 32.2 µM

CCN1CSC(=S)N(C(C)c2ccccc2)C1 (stereo not given)
IC50 [1]: 46.2 µM

CCCCN1CSC(=S)N(CC(=O)O)C1
IC50 [1]: 36.6 µM

N=C(N)c1ccc(OCCCCCOc2ccc(C(=N)N)cc2)cc1 [PENTAMIDINE]
IC50 [1]: 15 µM

CCCN1CSC(=S)N(CC(=O)O)C1
IC50 [1]: 69.6 µM

COc1ccc(CN2CN(CC(=O)O)CSC2=S)cc1OC
IC50 [1]: 15.5 µM | cytotoxicity at 48 h, 50 µM [2]: 86.8% | IC50 ([3]; NIH3T3, 48 h, read-out: IC50): 22.7 µM

CC(c1ccccc1)N1CN(CC(=O)O)CSC1=S (stereo not given)
IC50 [1]: 30.7 µM

CCN1CSC(=S)N(CC)C1
IC50 [1]: 38.4 µM

CCCN1CSC(=S)N(C(C)c2ccccc2)C1 (stereo not given)
IC50 [1]: 24.2 µM

CC(C)N1CN(CC(=O)O)CSC1=S
IC50 [1]: 137 µM

CCCN1CN(CC(=O)O)CSC1=S
IC50 [1]: 39.3 µM | cytotoxicity at 48 h, 50 µM [2]: 56.6% | IC50 ([3]; NIH3T3, 48 h, read-out: IC50): 38.1 µM

C[C@@H]1[C@H](O)[C@@H](C)/C=C/C=C/C=C/C=C/C=C/C=C/C=C/[C@H](O[C@@H]2O[C@H](C)[C@@H](O)[C@H](N)[C@@H]2O)C[C@@H]2O[C@](O)(C[C@@H](O)C[C@@H](O)[C@H](O)CC[C@@H](O)C[C@@H](O)CC(=O)O[C@H]1C)C[C@H](O)[C@H]2C(=O)O [AMPHOTERICIN B]
IC50 [1]: 0.31 µM

CCN1CN(CC(=O)O)CSC1=S
IC50 [1]: 33.1 µM
